Source: patent US20080249140A1, “Quaternary 3 -Amido, N-Methylpyridinium Salts as Anti-Inflammatory Agents” (priority 2005, published 2008)

How the values were obtained:
rats = settings: comparable to nicotinamide, lower than diethylamine; cited from earlier work
[1] = system: reddening of the skin upon UV-irradiation; test: UV-erythema test (anti-inflammation) with a trial person; assay type: in vivo; settings: for Readings of reddening intensities: 15±1 mg gel applied to irradiated skin, lower arm, UV C 150 seconds
Procedure: The NMN diclofenac salt prepared according to Example 1 was tested in experiments with a trial person in an […] according to Hiramatsu Y et al., Arzneimittel-forschung 1990, vol. 40 (11), 1117, and Wilhelm G, Schweiz. Med. Wochenschrift 1949, vol. 79, 577. The criterion of efficacy was the inhibition of the reddening of the skin upon UV-irradiation during the time of observation.
UV-Erythema Test (Anti-Inflammation):
• Lamp used: UV C lamp (Sylvania, Hg low pressure), 9 W • Irradiated area: circular, […] • Distance from lamp: 10 cm • Time of irradiation: 150 seconds • Site: lower arm, shaven, proximal side • Amount of gel applied to irradiated surface: 15±1 mg 3.5 to 5 minutes after end of irradiation
Readings of reddening intensities at given time intervals (arbitrary units): […]

SMILES	Toxicity (rats)	Readings of reddening intensities ([1]; 40 minutes after start of irradiation) [arbitrary units]	Readings of reddening intensities ([1]; 60 minutes after start of irradiation) [arbitrary units]	Readings of reddening intensities ([1]; 90 minutes after start of irradiation) [arbitrary units]	Readings of reddening intensities ([1]; 120 minutes after start of irradiation) [arbitrary units]	Readings of reddening intensities ([1]; 180 minutes after start of irradiation) [arbitrary units]	Activity in UV-erythema test compared with Voltaren-Emulgel ([1]; comparison with Voltaren-Emulgel (diethylammonium salt of diclofenac))
C[n+]1cccc(C(N)=O)c1 [NMN, N(1)-methylnicotinamide]	low toxicity	–	–	–	–	–	–
C[n+]1cccc(C(N)=O)c1.O=C([O-])Cc1ccccc1Nc1c(Cl)cccc1Cl [NMN-Diclofenac, NMN-Salt of Diclofenac]	–	1	0.5	0	0.5	0.5	superior activity
